Assay results: ChEMBL document CHEMBL3868597, “Modulating amyloid-β aggregation: The effects of peptoid side chain placement and chirality” (Bioorg Med Chem, 2017)
Activity calls are given as the source filed them. The rule behind the calls is not given here. Non-standard residues stand in square brackets, D forms with d. Residues, ends and D or L forms follow the SMILES beside them. N(1S-Me-propyl)Gly = CC[C@H](C)NCC(=O)O; Nspe = C[C@H](NCC(=O)O)c1ccccc1; Nphe = O=C(O)CNCc1ccccc1; NPrGly = CCCNCC(=O)O; Nlys = NCCCCNCC(=O)O

Columns and labels:
[1] = target: Amyloid-beta precursor protein (Homo sapiens) (UniProt P05067); assay: Inhibition of agitated amyloid beta (1 to 40) (unknown origin) aggregation assessed as reduction in fibrillar aggregates at 100 uM by dot blot analysis
Sequence of Amyloid-beta precursor protein (Homo sapiens) (P05067 whole entry): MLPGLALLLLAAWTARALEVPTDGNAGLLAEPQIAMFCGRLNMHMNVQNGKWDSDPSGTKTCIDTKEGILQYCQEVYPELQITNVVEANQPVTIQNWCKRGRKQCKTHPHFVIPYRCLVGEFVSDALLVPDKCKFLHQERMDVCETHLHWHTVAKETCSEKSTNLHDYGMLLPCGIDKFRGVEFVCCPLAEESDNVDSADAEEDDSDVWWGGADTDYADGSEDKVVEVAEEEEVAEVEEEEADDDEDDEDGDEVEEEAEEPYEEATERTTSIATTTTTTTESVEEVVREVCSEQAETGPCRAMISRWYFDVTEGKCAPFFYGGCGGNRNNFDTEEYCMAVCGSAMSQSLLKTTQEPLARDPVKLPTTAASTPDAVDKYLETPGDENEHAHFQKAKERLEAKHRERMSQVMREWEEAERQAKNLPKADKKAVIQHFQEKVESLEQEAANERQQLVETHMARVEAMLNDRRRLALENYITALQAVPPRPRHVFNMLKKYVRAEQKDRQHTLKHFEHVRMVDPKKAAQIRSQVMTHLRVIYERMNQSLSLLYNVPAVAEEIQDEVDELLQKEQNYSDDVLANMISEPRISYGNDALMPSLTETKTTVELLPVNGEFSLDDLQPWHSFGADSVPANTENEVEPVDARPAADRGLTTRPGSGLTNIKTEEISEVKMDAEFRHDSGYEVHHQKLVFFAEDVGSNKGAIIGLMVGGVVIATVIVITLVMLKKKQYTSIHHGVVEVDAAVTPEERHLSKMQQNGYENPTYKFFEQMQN

[2] = target: Amyloid-beta precursor protein (Homo sapiens) (UniProt P05067); assay: Inhibition of amyloid beta (1 to 40) (unknown origin) aggregation assessed as reduction in number aggregates at equilibrium at 100 uM after 24 hrs by uranyl acetate staining based transmission electron microscopic analysis
[3] = target: Amyloid-beta precursor protein (Homo sapiens) (UniProt P05067); assay: Inhibition of amyloid beta (1 to 40) (unknown origin) aggregation assessed as circular/bird-nest like aggregate formation at equilibrium at 100 uM after 24 hrs by uranyl acetate staining based transmission electron microscopic analysis
[4] = target: Amyloid-beta precursor protein (Homo sapiens) (UniProt P05067); assay: Inhibition of amyloid beta (1 to 40) (unknown origin) aggregation assessed as increase in surface hydrophobicity at equilibrium by nile red dye-based spectroscopic analysis
[5] = target: Amyloid-beta precursor protein (Homo sapiens) (UniProt P05067); assay: Inhibition of agitated amyloid beta (1 to 40) (unknown origin) aggregation at 100 uM measured at equilibrium by thioflavin T based fluorometric assay
[6] = target: Amyloid-beta precursor protein (Homo sapiens) (UniProt P05067); assay: Inhibition of amyloid beta (1 to 40) (unknown origin) aggregation assessed as absence of fibrillar branching at equilibrium at 100 uM by uranyl acetate staining based transmission electron microscopic analysis
[7] = target: Amyloid-beta precursor protein (Homo sapiens) (UniProt P05067); assay: Inhibition of agitated amyloid beta (1 to 40) (unknown origin) aggregation assessed as increase in lag time at 100 uM by dot blot analysis relative to control
[8] = target: Amyloid-beta precursor protein (Homo sapiens) (UniProt P05067); assay: Inhibition of amyloid beta (1 to 40) (unknown origin) aggregation assessed as decrease in size of protein aggregation at equilibrium at 100 uM after 24 hrs by uranyl acetate staining based transmission electron microscopic analysis
[9] = target: Amyloid-beta precursor protein (Homo sapiens) (UniProt P05067); assay: Inhibition of agitation-induced amyloid beta (1 to 40) (unknown origin) aggregation assessed as decrease in lag time at 100 uM by dot blot analysis relative to control
[10] = target: Amyloid-beta precursor protein (Homo sapiens) (UniProt P05067); assay: Inhibition of agitation-induced amyloid beta (1 to 40) (unknown origin) aggregation assessed as reduction in fibrillar aggregates at 100 uM measured every 30 to 45 mins by dot blot analysis
[11] = target: Amyloid-beta precursor protein (Homo sapiens) (UniProt P05067); assay: Inhibition of agitation-induced amyloid beta (1 to 40) (unknown origin) aggregation at 100 uM measured every 45 mins by thioflavin T based fluorometric assay
[12] = target: Amyloid-beta precursor protein (Homo sapiens) (UniProt P05067); assay: Inhibition of agitation-induced amyloid beta (1 to 40) (unknown origin) aggregation assessed as decrease in lag time at 100 uM measured every 30 to 45 mins by dot blot analysis relative to control

inhibition [1] [%] | inhibition [2] | inhibition [3] | inhibition [4] | inhibition [5] [%] | inhibition [6] | fold change (FC) [7] | inhibition [8] | fold change (FC) [9] | inhibition [10] [%] | inhibition [11] [%] | fold change (FC) [12] | Structure (SMILES)
72.6 | Active | Active | Active | 85.6 | Active |  |  |  |  |  |  | CCCN(CC(=O)N(CCC)CC(=O)N(CC(=O)N(CC(=O)N(CCC)CC(=O)N(CC(=O)N(CC(N)=O)Cc1ccccc1)Cc1ccccc1)Cc1ccccc1)Cc1ccccc1)C(=O)CNCCCCN (H-[Nlys][NPrGly][NPrGly][Nphe][Nphe][NPrGly][Nphe][Nphe]-NH2)
50.5 | Active |  |  | 76.9 | Active | 2.2 |  |  |  |  |  | CC[C@H](C)NCC(=O)N(CC(=O)N(CC(=O)N(CC(=O)N(CC(=O)N(CCCCN)CC(=O)N(CC(=O)N(CC(N)=O)[C@@H](C)c1ccccc1)[C@@H](C)CC)[C@@H](C)CC)[C@@H](C)c1ccccc1)[C@@H](C)c1ccccc1)[C@@H](C)c1ccccc1 (H-[N(1S-Me-propyl)Gly][Nspe][Nspe][Nspe][N(1S-Me-propyl)Gly][Nlys][N(1S-Me-propyl)Gly][Nspe]-NH2)
46 | Active |  |  | 83.1 | Active | 2.7 | Active | < 0.5 | 63.7 | 81.2 | < 0.31 | CC[C@H](C)N(CC(=O)N(CC(=O)N(CC(=O)N(CC(=O)N(CC(=O)N(CC(=O)N(CC(N)=O)[C@@H](C)c1ccccc1)[C@@H](C)c1ccccc1)[C@@H](C)CC)[C@@H](C)c1ccccc1)[C@@H](C)c1ccccc1)[C@@H](C)CC)C(=O)CNCCCCN (H-[Nlys][N(1S-Me-propyl)Gly][N(1S-Me-propyl)Gly][Nspe][Nspe][N(1S-Me-propyl)Gly][Nspe][Nspe]-NH2)
